From patent US20150320696A1, “COMBINATION THERAPY FOR CANCER” (priority 2012, published 2015)

Tests used:
[1] = test system: colorectal cancer cell line HT29; assay: MTT cytotoxic assay, HT29 cells; assay type: cell-based, Human
Description: (§1) The cytotoxic effects of terpinen-4-ol on cells were measured with the 3-[4,5-dimethylthiazol-2-yl]-2,5 diphenyltetrazolium (MTT) assay. Cells were seeded in 96-well plates (1×10^4 cells/well) in complete medium. After 12-16 hours of growth, different concentrations of each of the described agents were added to the cells in triplicates. 72 h later, the medium was replaced with fresh medium (100 μl per well) containing 1 mg/ml MTT and the cell were further incubated for 2 to 4 h. MTT-formazan crystals were dissolved by the addition of 100 μl extraction buffer. Absorbance at 570 nm and reference wavelength of 690 nm were recorded on an automated microplate reader. The relative number of viable cells compared to control cell line grown under the same condition, but without the added examined agent was determined.

[2] = test system: pancreatic cancer cell line MIA-PACA; assay: MTT cytotoxic assay, MIA-PACA cells; assay type: cell-based, Human
Description: as §1

[3] = test system: murine B16 melanoma tumor cell line; conditions: Greay S J et al., 2010; cited from earlier work
[4] = test system: DLD-1 colorectal cancer cell line xenograft; assay: Xenograft model of nude mice bearing DLD-1 colorectal cancer cell line; assay type: in vivo, athymic nude mice
Description: Male athymic nude mice, 6-8 weeks old, (Harlan Laboratories) were housed in sterile cages and handled with aseptic precautions. The mice were fed ad libitum. The therapeutic anti-cancer activity of terpinen-4-ol alone or in combination with additional anti-cancer agents was examined as follows: exponentially growing DLD1 cancer cells were harvested and resuspended at a final concentration of 5×10^6 cells per 0.2 ml PBS per injection. The cells were injected subcutaneously at two sites on the backs of the mice. When tumors were palpable, mice were randomly divided into the treatment groups as described hereinbelow.
At the 9th day after cell injection mice were randomly divided into treatment and control groups and the treatment was started by intra-tumor injection. The control group (5 mice) received 50 μl of a PBS solution with 1% DMSO; the treatment group (5 mice) received 50 μl of PBS solution with 1% DMSO containing 0.1% (v/v) terpinen-4-ol (1A).
Mice were treated every second day. The mice were weighed and tumor volume was measured every three days (with a caliper) starting from the onset of treatment with terpinen-4-ol/control. Tumor volume was calculated as 4/3π·a·b^2. At the end of the experiment, the mice were sacrificed by cervical dislocation after anesthesia and the tumors were excised and measured for volume and weight. Half of each tumor was preserved in −80° C. and the other half was preserved in 4% formaldehyde.
At the 11th day after cell implantation, mice were randomly divided into groups and the treatment started. The chemotherapeutic agent (cetuximub, referred to hereinafter by its trade name Erbitox®) was administered via intraperitoneal (i.p) injection 24 hours before administration of terpinen-4-ol. The terpinen-4-ol was administered directly into the tumor (intra-tumor injection).
Mice were treated every second day for 2 weeks. Mice were weighed and tumor volume was measured with a caliper before each additional treatment. Tumor volume was calculated as 4/3π·a·b^2.

[5] = test system: cancer cell lines; assay: MTT cytotoxic assay, all cancer cell lines examined (general statements); assay type: cell-based; conditions: terpinen-4-ol at a concentration of 0.01%
Description: Human colon adenocarcinoma grade II cells, HT29; Human colon carcinoma cells, HCT116; Human colonic carcinoma cells, COLO 320; Human cell line of metastatic pancreatic adenocarcinoma, COLO 357; Human pancreatic carcinoma epithelial-like cell line, PANC-1; and Human pancreatic carcinoma cells, MIA-PACA were grown in high-glucose Dulbecco's modified Eagle's medium (DMEM) supplemented with 5% heat-inactivated (HI) fetal bovine serum (FBS), 1% Glutamine and streptomycin/penicillin.
(§2) Androgen-independent, highly anaplastic prostate cancer cell line with moderate metastatic potential, DU145; Aggressive androgen-independent anaplastic cell line, CL-1; and the colorectal adenocarcinoma DLD1 cells were grown in RPMI-1640 medium supplemented with 5% HI-FBS.
as §1, with “72 h later, the medium was replaced with fresh medium (100 μl per well) containing 1 mg/ml MTT and the cell were further incubated for 2 to 4 h. MTT-formazan crystals were dissolved by the addition of 100 μl extraction buffer.” left out

[6] = test system: drug (adriamicin)-resistant cell line (ADR); conditions: cell line expressing high levels of P-glycoprotein; Calcabrini A et al., 2004; cited from earlier work
[7] = test system: prostate cancer cell line DU145; assay: MTT cytotoxic assay, DU145 cells; assay type: cell-based, Human
Description: as §2, §1

[8] = test system: human M14 melanoma cells; conditions: Calcabrini A et al., 2004; cited from earlier work
[9] = test system: prostate cancer cell line CL-1; assay: MTT cytotoxic assay, CL-1 cells; assay type: cell-based
Description: as §2, §1

[10] = test system: pancreatic cancer cell line COLO 357; assay: MTT cytotoxic assay, COLO 357 cells; assay type: cell-based, Human
Description: as §1, with “Human colon adenocarcinoma grade II cells, HT29; Human colon carcinoma cells, HCT116; Human colonic carcinoma cells, COLO 320; Human cell line” for “The cytotoxic effects”, “metastatic pancreatic adenocarcinoma, COLO 357; Human pancreatic carcinoma epithelial-like cell line, PANC-1; and Human pancreatic carcinoma cells, MIA-PACA” for “terpinen-4-ol on cells”, “grown in high-glucose Dulbecco's modified Eagle's medium (DMEM) supplemented” for “measured”, “5% heat-inactivated (HI) fetal bovine serum (FBS), 1% Glutamine and streptomycin/penicillin. […]” for “the 3-[4,5-dimethylthiazol-2-yl]-2,5 diphenyltetrazolium (MTT) assay.”

[11] = test system: pancreatic cancer cell line PANC-1; assay: MTT cytotoxic assay, PANC-1 cells; assay type: cell-based, Human
Description: as §1

[12] = test system: colorectal cancer cell line DLD1; assay: MTT cytotoxic assay, DLD1 cells; assay type: cell-based
Description: as §1

[13] = test system: murine AE17 mesothelioma tumor cell line; conditions: Greay S J et al., 2010; cited from earlier work

In the case of `CC1=CCC(O)(C(C)C)CC1` (stereo not drawn) [terpinen-4-ol, 4-methyl-1-(1-methylethyl)-3-cyclohexen-1-ol], the “concentration dependence of cytotoxic effect” value (“concentration dependence” for short) ([1]; 0.005%, 0.01%, 0.02% and 0.10% (v/v), FIG. 2B) is reported as “concentration dependent”, the “dependence of cytotoxic activity on DMSO” value ([1]; 0.01% DMSO added to medium containing 0.01%, 0.05% or 0.10% terpinen-4-ol, FIG. 1B) is reported as “does not depend on the presence of DMSO” and the “cytotoxic activity in the presence of DMSO compared to without” value ([1]; 0.01% DMSO, FIG. 1B) is reported as “lower activity”. The “concentration dependence” value ([2]; 0.005%, 0.01%, 0.02% and 0.10% (v/v), FIG. 2E) was “concentration dependent”, the “dependence of cytotoxic activity on DMSO” value ([2]; 0.01% DMSO added to medium containing 0.01%, 0.05% or 0.10% terpinen-4-ol, FIG. 1D) was “does not depend on the presence of DMSO” and the anti-proliferative effect [3] was “significant anti-proliferative effects”. For the same compound, the “volume of the implanted tumor” value ([4]; Example 5, intra-tumor injection of 50 μl 0.1% terpinen-4-ol (about 1.65 mg/Kg per injection) every second day, vs control, FIG. 5A) was “significantly reduced”, the “weight of the implanted tumor” value ([4]; Example 5, intra-tumor injection of 50 μl 0.1% terpinen-4-ol (about 1.65 mg/Kg per injection) every second day, vs control, end of assay, FIG. 5B) was “significantly reduced” and the “effect on the tumor growth” value ([4]; Example 6, 0.1% terpinen-4-ol intra-tumor, after two weeks of treatment) was “only minor effect”. The “reduction of tumor size compared to control” value ([4]; Example 6, 50 μl 0.1% terpinen-4-ol intra-tumor every second day, after two weeks of treatment, FIG. 6) was “about 3.7%”, the cytotoxic effectiveness [5] was “moderately effective” and the “effectiveness relative to parental M14 cells” value [6] was “more effective”. For the same compound, the “concentration dependence” value ([7]; 0.005%, 0.01%, 0.02% and 0.10% (v/v), FIG. 2C) was “concentration dependent”, the “dependence of cytotoxic activity on DMSO” value ([7]; 0.01% DMSO added to medium containing 0.01%, 0.05% or 0.10% terpinen-4-ol, FIG. 1F) was “does not depend on the presence of DMSO” and the “effect on cell growth” value [8] was “impair the growth”. The “concentration dependence” value ([9]; 0.005%, 0.01%, 0.02% and 0.10% (v/v), FIG. 2D) was “concentration dependent”, the “dependence of cytotoxic activity on DMSO” value ([9]; 0.01% DMSO added to medium containing 0.01%, 0.05% or 0.10% terpinen-4-ol, FIG. 1G) was “does not depend on the presence of DMSO” and the “concentration dependence” value ([10]; 0.005%, 0.01%, 0.02% and 0.10% (v/v), FIG. 2G) was “concentration dependent”. For the same compound, the “dependence of cytotoxic activity on DMSO” value ([10]; 0.01% DMSO added to medium containing 0.01%, 0.05% or 0.10% terpinen-4-ol, FIG. 1E) was “does not depend on the presence of DMSO”, the “concentration dependence” value ([11]; 0.005%, 0.01%, 0.02% and 0.10% (v/v), FIG. 2F) was “concentration dependent” and the “dependence of cytotoxic activity on DMSO” value ([11]; 0.01% DMSO added to medium containing 0.01%, 0.05% or 0.10% terpinen-4-ol, FIG. 1C) was “does not depend on the presence of DMSO”. The “concentration dependence” value ([12]; 0.005%, 0.01%, 0.02% and 0.10% (v/v), FIG. 2A) was “concentration dependent”, the “dependence of cytotoxic activity on DMSO” value ([12]; 0.01% DMSO added to medium containing 0.01%, 0.05% or 0.10% terpinen-4-ol, FIG. 1A) was “does not depend on the presence of DMSO” and the anti-proliferative effect [13] was “significant anti-proliferative effects”.
